Values joined by “and” are separate entries in the source; they are usually repeats but may differ in a detail not shown here. Equal values may be shown once. Read-outs that look alike come from different tables or passages of the source.
Assay: Continuous infusion study pharmacokinetics (plasma)
Assay type: in vivo, human
Conditions: for dose proportionality of steady-state concentration (Css): continuous infusion 1-12 mg/h; for level at 2 h / level at 168 h / level at 170 h / level at 336 h / level at 338 h / level at 504 h / level at 506 h: iv
Protocol: Patients with solid tumors received a continuous infusion of 1 mg/h, 2 mg/h, 4 mg/h, 8 mg/h or 12 mg/h. with a weekly change of infusion bag.
Blood samples were taken on Day 1 (first dose) at pre-dose and 2 h after start of infusion and then weekly just before change of infusion bag and 2 hours thereafter for the first 4 weeks.
The following pharmacokinetic parameters were derived at Merck KGaA. Darmstadt, Germany, by mathematical methods using Kinetica Version 4.1.1.
CL the total body clearance of EMD 121974 from plasma Css plasma concentration at steady state ke elimination rate constant Rate infusion rate t1/2, half life V Volume of distribution
Css, the plasma concentration at steady state, has been estimated by the arithmetic mean of all concentration values from time point 168 h to 506 h per patient.
From Css and t1/2 the PK parameters CL, ke and V were calculated as follows: […]

[1] = Rate 12 mg/h, Mean, t1/2 = 4 hours
[2] = human, plasma, 1 mg/h, Rate 1 mg/h, Mean, read-out: EMD 121974 Concentrations, Mean
[3] = human, plasma, 2 mg/h, Rate 2 mg/h, Mean, read-out: EMD 121974 Concentrations, Mean
[4] = human, plasma, 4 mg/h, Rate 4 mg/h, Mean, read-out: EMD 121974 Concentrations, Mean
[5] = human, plasma, 8 mg/h, Rate 8 mg/h, Mean, read-out: EMD 121974 Concentrations, Mean
[6] = human, plasma, 12 mg/h, Rate 12 mg/h, Mean, read-out: EMD 121974 Concentrations, Mean

CC(C)[C@H]1C(=O)N[C@@H](CCCN=C(N)N)C(=O)NCC(=O)N[C@@H](CC(=O)O)C(=O)N[C@H](Cc2ccccc2)C(=O)N1C [Cilengitide, cyclo-(Arg-Gly-Asp-DPhe-NMeVal)]
EMD 121974 Concentrations (Rate 12 mg/h, 170 h, individual subjects, listed as EMD 121974): 1130.00 ng/mL and 1770.00 ng/mL and 1340.00 ng/mL | EMD 121974 Concentrations (Rate 12 mg/h, 336 h, individual subjects, listed as EMD 121974): 4280.00 ng/mL and 1250.00 ng/mL and 1790.00 ng/mL | EMD 121974 Concentrations (Rate 12 mg/h, 338 h, individual subjects, listed as EMD 121974): 1780.00 ng/mL and 1610.00 ng/mL and 1620.00 ng/mL | EMD 121974 Concentrations (Rate 12 mg/h, 504 h, individual subjects, listed as EMD 121974): 2220.00 ng/mL and 989.00 ng/mL and 2050.00 ng/mL | EMD 121974 Concentrations (Rate 12 mg/h, 506 h, individual subjects, listed as EMD 121974): 1550.00 ng/mL and 1230.00 ng/mL and 1880.00 ng/mL | CL (Rate 12 mg/h, CL=Rate/Css, individual subjects, listed as EMD 121974): 7.66 L/h and 6.75 L/h | V, Mean [1]: 39.5 L | ke, Mean [1]: 0.173 h⁻¹ | V (Rate 12 mg/h, V=CL/ke, t1/2 = 4 hours, individual subjects, listed as EMD 121974): 35.4 L and 44.2 L and 39.0 L | ke (Rate 12 mg/h, for t1/2 = 4 hours, individual subjects): 0.173 h⁻¹ | Css (Rate 12 mg/h, mean of 168 h to 506 h values per patient, individual subjects, listed as EMD 121974): 1.9562 µg/mL and 1.5665 µg/mL and 1.7767 µg/mL | time to reach steady state conditions (assuming a half-life of 4 hours): ≤ 24 h | dose proportionality of steady-state concentration (Css) (listed as EMD): increased proportionally to dose | dose proportionality of steady-state concentration (Css) (listed as EMD 121974): increase proportional to dose | clearance (human, plasma, intravenous, 1 mg/h, Rate 1 mg/h, Mean, read-out: CL, Mean (converted)): 139 mL/min | clearance (human, plasma, intravenous, 2 mg/h, Rate 2 mg/h, CL=Rate/Css, individual subjects, read-out: CL (converted)): 115 mL/min | clearance (human, plasma, intravenous, 2 mg/h, Rate 2 mg/h, Mean, read-out: CL, Mean (converted)): 95.3 mL/min | clearance (human, plasma, intravenous, 4 mg/h, Rate 4 mg/h, CL=Rate/Css, individual subjects, read-out: CL (converted)): 107 mL/min | clearance (human, plasma, intravenous, 4 mg/h, Rate 4 mg/h, Mean, read-out: CL, Mean (converted)): 109 mL/min | clearance (human, plasma, intravenous, 8 mg/h, Rate 8 mg/h, Mean, read-out: CL, Mean (converted)): 112 mL/min | clearance (human, plasma, intravenous, 12 mg/h, Rate 12 mg/h, CL=Rate/Css, individual subjects, read-out: CL (converted)): 102 mL/min | clearance (human, plasma, intravenous, 12 mg/h, Rate 12 mg/h, Mean, read-out: CL, Mean (converted)): 114 mL/min | clearance (human, plasma, intravenous, range of dose-group means, 1-12 mg/h, read-out: mean clearance): 95.3 to 139 mL/min | Vd (human, plasma, intravenous, range of dose-group means, 1-12 mg/h, t1/2 = 4 hours assumed, read-out: Mean volume of distribution): 33 to 48 L | level at 2 h [2]: 0.0391 µg/mL | level at 168 h [2]: 0.156 µg/mL | level at 170 h (human, plasma, 1 mg/h, Rate 1 mg/h, 170 h, Mean, read-out: EMD 121974 Concentrations, Mean): 0.0666 µg/mL | level at 336 h (human, plasma, 1 mg/h, Rate 1 mg/h, 336 h, Mean, read-out: EMD 121974 Concentrations, Mean): 0.209 µg/mL | level at 338 h (human, plasma, 1 mg/h, Rate 1 mg/h, 338 h, Mean, read-out: EMD 121974 Concentrations, Mean): 0.191 µg/mL | level at 504 h (human, plasma, 1 mg/h, Rate 1 mg/h, 504 h, Mean, read-out: EMD 121974 Concentrations, Mean): 0.0621 µg/mL | level at 504 h (human, plasma, 1 mg/h, Rate 1 mg/h, 504 h, individual subjects, read-out: EMD 121974 Concentrations): 0.0621 µg/mL | level at 506 h (human, plasma, 1 mg/h, Rate 1 mg/h, 506 h, Mean, read-out: EMD 121974 Concentrations, Mean): 0.109 µg/mL | level at 506 h (human, plasma, 1 mg/h, Rate 1 mg/h, 506 h, individual subjects, read-out: EMD 121974 Concentrations): 0.0944 µg/mL | level at 2 h [3]: 0.162 µg/mL | level at 168 h [3]: 0.344 µg/mL | level at 170 h (human, plasma, 2 mg/h, Rate 2 mg/h, 170 h, Mean, read-out: EMD 121974 Concentrations, Mean): 0.28 µg/mL | level at 336 h (human, plasma, 2 mg/h, Rate 2 mg/h, 336 h, Mean, read-out: EMD 121974 Concentrations, Mean): 0.495 µg/mL | level at 338 h (human, plasma, 2 mg/h, Rate 2 mg/h, 338 h, Mean, read-out: EMD 121974 Concentrations, Mean): 0.359 µg/mL | level at 504 h (human, plasma, 2 mg/h, Rate 2 mg/h, 504 h, Mean, read-out: EMD 121974 Concentrations, Mean): 0.377 µg/mL | level at 506 h (human, plasma, 2 mg/h, Rate 2 mg/h, 506 h, Mean, read-out: EMD 121974 Concentrations, Mean): 0.337 µg/mL | level at 2 h [4]: 0.328 µg/mL | level at 168 h [4]: 0.626 µg/mL | level at 170 h (human, plasma, 4 mg/h, Rate 4 mg/h, 170 h, Mean, read-out: EMD 121974 Concentrations, Mean): 0.515 µg/mL | level at 336 h (human, plasma, 4 mg/h, Rate 4 mg/h, 336 h, Mean, read-out: EMD 121974 Concentrations, Mean): 0.727 µg/mL | level at 338 h (human, plasma, 4 mg/h, Rate 4 mg/h, 338 h, Mean, read-out: EMD 121974 Concentrations, Mean): 0.559 µg/mL | level at 504 h (human, plasma, 4 mg/h, Rate 4 mg/h, 504 h, Mean, read-out: EMD 121974 Concentrations, Mean): 0.665 µg/mL | level at 506 h (human, plasma, 4 mg/h, Rate 4 mg/h, 506 h, Mean, read-out: EMD 121974 Concentrations, Mean): 0.681 µg/mL | level at 2 h [5]: 0.503 µg/mL | level at 168 h [5]: 1.46 µg/mL | level at 170 h (human, plasma, 8 mg/h, Rate 8 mg/h, 170 h, Mean, read-out: EMD 121974 Concentrations, Mean): 1.21 µg/mL | level at 336 h (human, plasma, 8 mg/h, Rate 8 mg/h, 336 h, Mean, read-out: EMD 121974 Concentrations, Mean): 0.525 µg/mL | level at 338 h (human, plasma, 8 mg/h, Rate 8 mg/h, 338 h, Mean, read-out: EMD 121974 Concentrations, Mean): 0.972 µg/mL | level at 504 h (human, plasma, 8 mg/h, Rate 8 mg/h, 504 h, Mean, read-out: EMD 121974 Concentrations, Mean): 1.63 µg/mL | level at 506 h (human, plasma, 8 mg/h, Rate 8 mg/h, 506 h, Mean, read-out: EMD 121974 Concentrations, Mean): 1.29 µg/mL | level at 2 h [6]: 0.499 µg/mL | level at 168 h [6]: 1.77 µg/mL | level at 170 h (human, plasma, 12 mg/h, Rate 12 mg/h, 170 h, Mean, read-out: EMD 121974 Concentrations, Mean): 1.41 µg/mL | level at 336 h (human, plasma, 12 mg/h, Rate 12 mg/h, 336 h, Mean, read-out: EMD 121974 Concentrations, Mean): 2.44 µg/mL | level at 338 h (human, plasma, 12 mg/h, Rate 12 mg/h, 338 h, Mean, read-out: EMD 121974 Concentrations, Mean): 1.67 µg/mL | level at 504 h (human, plasma, 12 mg/h, Rate 12 mg/h, 504 h, Mean, read-out: EMD 121974 Concentrations, Mean): 1.75 µg/mL | level at 506 h (human, plasma, 12 mg/h, Rate 12 mg/h, 506 h, Mean, read-out: EMD 121974 Concentrations, Mean): 1.55 µg/mL
